We go through two compounds from US11970497B2, “Tricyclic AKR1C3 dependent KARS inhibitors” (Novartis AG, priority 2019, dated 2024).

Assay in all cases: Expanded lung cancer cell line proliferation assay
What all share (assay type): cell-based

Test [1] deals with NCI-H460. The note with it: Homo sapiens; NCI-H460, 72 h, average of PrestoBlue and Cell Titer Glo; AKR1C3 865.3 TPM; read-out: Absolute Qualified AC50. The source says: (§1) Cellular Proliferation Assay to Assess Compound Activity in an Expanded Panel of 57 NRF2 Pathway Mutant and Wild Type Lung Cancer Cell Lines.
(§2) Both the PrestoBlue Cell Viability Reagent and Cell Titer Glo were multiplexed together as the final assay readout. PrestoBlue is a cell permeable resazurin-based solution that utilizes the reducing power of living cells to quantitatively measure their proliferation. Cell Titer Glo measures the amount of ATP present, an indicator of metabolically active cells.
(§3) Expanded Lung Cancer Cell Line Proliferation Assay Outline, Analysis and Profiling Results
(§4) Cells were seeded into 384 well assay plates (Greiner Bio-One, Catalog #781080) using the Thermo Scientific Matrix WellMate microplate dispenser and Thermo Scientific Matrix WellMate small bore disposable tubing cartridges (Catalog #201-30002) in 30 μl of growth media (RPMI-1640 supplemented with 10% fetal bovine serum and 1% penicillin/streptomycin) per well (1000 to 2000 cells/well depending on doubling time). Following cell plating, assay plates were placed into tissue culture incubator at 37° C./5% CO2 overnight. The next day one assay plate for each cell line was used for a Day 0 Cell Titer Glo and PrestoBlue readout. 3 μl of PrestoBlue Cell Viability Reagent (Thermo Scientific, Catalog #A13262) was added to each well and then assay plates were incubated at 37° C./5% CO2 for 30 minutes prior to fluorescence readout on the EnVision 2105 multimode plate reader (Perkin Elmer). Following the PrestoBlue readout 18 μl of Cell Titer Glo (Promega, Catalog #G7572) was then added to each well, allowing plates to incubate at room temperature for 10 minutes prior to luminescence readout on the EnVision. Compound was then added to the remaining assay plates (each cell line run in triplicates) using the Labcyte Inc Echo 555 acoustic liquid handler. Compounds were arrayed into a Labcyte Inc Echo qualified 384 well LDV microplate (Cat #LP-0200-GNF10). Compounds were serially diluted 1:3.16 to generate an 8 point dose response for a final top concentration of 1 μM. DMSO (0.3%) was used as the neutral control (NC) and MG132 (30 μM) was used as the active control (AC). 90 nl of compounds were added to 30 μl of cells using the Labcyte Inc Echo 555 acoustic liquid handler for a final DMSO assay concentration of 0.3%. Following compound addition, assay plates were spun down in a tabletop centrifuge at 500 rpm for 1 minute and then placed into tissue culture incubator at 37° C./5% CO2 for 72 h. Following the 72 h incubation, all assay plates were readout using PrestoBlue and Cell Titer Glo using the same conditions previously described for the Day 0 readout. The Day 0 readout (untreated cells) was used to compare to the 72 h DMSO treated samples on each assay plate as a way of tracking each cell line's fold growth. NC1 control based normalization was used for data analysis in Helios, which incorporates the DMSO neutral control (NC) and MG132 active control (AC) for generating dose response curves that are then used to calculate the Absolute Qualified AC50 calls for each compound and cell line.
(§5) NC1 normalization calculation model: NC1: xn=±(x−NC)/(AC−NC)
(§6) +/− is set by the inhibition type parameter setting where NC and AC are averages (mean or median) over the corresponding NC and AC well values. The Qualified Absolute AC50 values for Compound 36 and Compound 40 are listed in the table below and are represented as the average activity in both the PrestoBlue and Cell Titer Glo assay readouts.
(§7) Absolute Qualified AC50 Values Listed Below are a Representation of Each Compounds' Average Activity in Both the PrestoBlue and Cell Titer Glo Assay Readouts.
A general note: Cellular ATP, detected with luciferase, serves as a proxy for viable cell number.

Test [2] deals with PC-14. The note with it: Homo sapiens; PC-14, 72 h, average of PrestoBlue and Cell Titer Glo; AKR1C3 1466.3 TPM; read-out: Absolute Qualified AC50.
From the text: as §1, §2, §3, §4, §5, §6, §7

Test [3] deals with RERF-LC-AI. The note with it: 72 h, average of PrestoBlue and Cell Titer Glo, AKR1C3 7.6 TPM, read-out: Absolute Qualified AC50.
From the text: as §1, §2, §3, §4, §5, §6, §7

The test system of test [4] is A427. Particulars: Homo sapiens, A-427; A427, 72 h, average of PrestoBlue and Cell Titer Glo; AKR1C3 0.2 TPM; read-out: Absolute Qualified AC50.
From the text: as §1, §2, §3, §4, §5, §6, §7

In test [5] the test system is NCI-H661. The note with it: Homo sapiens; NCI-H661, 72 h, average of PrestoBlue and Cell Titer Glo; AKR1C3 3 TPM; read-out: Absolute Qualified AC50.
From the text: as §1, §2, §3, §4, §5, §6, §7

For test [6], the system named is BEN. Particulars: 72 h, average of PrestoBlue and Cell Titer Glo, AKR1C3 2573.5 TPM, read-out: Absolute Qualified AC50.
From the text: as §1, §2, §3, §4, §5, §6, §7

For test [7], the system named is NCI-H2405. The note with it: Homo sapiens; NCI-H2405, 72 h, average of PrestoBlue and Cell Titer Glo; AKR1C3 189.1 TPM; read-out: Absolute Qualified AC50.
From the text: as §1, §2, §3, §4, §5, §6, §7

Test [8] deals with NCI-H1573. Particulars: Homo sapiens; NCI-H1573, 72 h, average of PrestoBlue and Cell Titer Glo; AKR1C3 306.2 TPM; read-out: Absolute Qualified AC50.
From the text: as §1, §2, §3, §4, §5, §6, §7

The subject of test [9] is Calu-6. Particulars: Homo sapiens; Calu-6, 72 h, average of PrestoBlue and Cell Titer Glo; AKR1C3 32.5 TPM; read-out: Absolute Qualified AC50.
From the text: as §1, §2, §3, §4, §5, §6, §7

Test [10] has as its system NCI-H2172. Particulars: NCI-H2172, 72 h, average of PrestoBlue and Cell Titer Glo; AKR1C3 1522.4 TPM; read-out: Absolute Qualified AC50.
From the text: as §1, §2, §3, §4, §5, §6, §7

The subject of test [11] is NCI-H1581. Particulars: Homo sapiens; NCI-H1581, 72 h, average of PrestoBlue and Cell Titer Glo; AKR1C3 1.9 TPM; read-out: Absolute Qualified AC50.
From the text: as §1, §2, §3, §4, §5, §6, §7

In test [12] the test system is NCI-H358. The note with it: Homo sapiens; NCI-H358, 72 h, average of PrestoBlue and Cell Titer Glo; AKR1C3 5.6 TPM; read-out: Absolute Qualified AC50.
From the text: as §1, §2, §3, §4, §5, §6, §7

For test [13], the system named is LCLC-103H. Particulars: Homo sapiens, 72 h, average of PrestoBlue and Cell Titer Glo, AKR1C3 2.6 TPM, read-out: Absolute Qualified AC50.
From the text: as §1, §2, §3, §4, §5, §6, §7

For test [14], the system named is NCI-H520. Particulars: Homo sapiens; NCI-H520, 72 h, average of PrestoBlue and Cell Titer Glo; AKR1C3 608.9 TPM; read-out: Absolute Qualified AC50.
From the text: as §1, §2, §3, §4, §5, §6, §7

The structures appear in SMILES notation. Where only a bound is given, the exact number is not on record here.

Regarding `CN1c2ccc(F)cc2C(=O)CC12CCN(C(=O)NCc1ccc(F)c(NCCO)c1)CC2` [Example 36, 6′-fluoro-N-(4-fluoro-3-((2-hydroxyethyl)amino)benzyl)-1′-methyl-4′-oxo-3′,4′-dihydro-1′H-spiro[piperidine-4,2′-quinoline]-1-carboxamide], the AC50 in [1] was 268 nM; in test [2], 308 nM; in [3] it was > 1000 nM; in test [4] it was > 1000 nM; in test [5] it was > 1000 nM; in test [6], 399 nM. Moreover, the AC50 in test [7] is 994 nM; in test [8], 946 nM; in test [9], > 1000 nM; in test [10], > 1000 nM; in test [11] it was > 1000 nM; in [12] it was > 1000 nM. The AC50 in test [13] and in test [14] was > 1000 nM each time.
Regarding `O=C1CC2(CCN(C(=O)NCc3ccc(F)cc3)CC2)Nc2ccc(F)cc21` [Example 40], the AC50 is 50 nM in [1]; 92 nM in test [2]; > 1000 nM in test [3]; > 1000 nM in test [4]; > 1000 nM in test [5]; 57 nM in test [6]. For the same compound, the concentration at half-maximal activity (AC50) in test [7] was 474 nM; in test [8], 293 nM; in test [9], > 1000 nM; in [10] it was 149 nM; in test [11] it was > 1000 nM; in test [12], > 1000 nM. For the same compound, the AC50 in [13] and in test [14] was > 1000 nM throughout.

In general, AC50 refers to the concentration at which the activity in the assay is half-maximal.
